The values below come from ChEMBL document CHEMBL1158980, “Bioactive neolignans from Endlicheria dysodantha” (J Nat Prod, 1991).

Data set [1] deals with Agrobacterium tumefaciens. As to the kind of experiment: Antitumor activity against Agrobacterium tumefaciens-induced crown gall tumor in potato tubers. It counts as functional.
The test system of another data set is Artemia. As to the kind of experiment: Toxicity against brine shrimp. In kind it is organism-based. As to conditions: in vivo.
The next data set relates to MCF7. As to the kind of experiment: Cytotoxicity against human MCF7 cells. In kind it is functional. The conditions noted are these: read-out: ED50 (the source's name).
The subject of the next data set is HT-29. As to the kind of experiment: Cytotoxicity against human HT-29 cells. In kind it is functional. The conditions noted are these: read-out: ED50 (the source's name).
A further data set deals with A549. As to the kind of experiment: Cytotoxicity against human A549 cells. In kind it is functional. The conditions noted are these: read-out: ED50 (the source's name).

Values after ≈ are worked out from the molar mass of the structure shown. Active and inactive are the calls of the source. The calls are words filed in the database; no cut-off is given here.

In general, LC50 refers to the concentration lethal to half of the exposed cells or organisms. A high value points to a less lethal substance. Turning to `C=CC[C@]12C=C(OC)C(=O)C=C1O[C@@H](c1cc(OC)c3c(c1)OCO3)[C@H]2C`, the inhibition result in data set [1] is “inactive”. This compound returned an LC50 in the data set on Artemia of 162.1 ppm. In addition, the EC50 in the data set with MCF7 is 79 mg/L (≈ 213 µM); with HT-29, 96.5 mg/L (≈ 261 µM); in the data set with A549, > 100 mg/L.
In the case of `COc1cccc2c1C(=O)c1c(O)c3c(c(O)c1C2=O)C[C@@](O)(C(=O)CO)C[C@@H]3O[C@H]1C[C@H](N)[C@H](O)[C@H](C)O1` [DOXORUBICIN], the “inhibition (INH)” value in data set [1] is 68.8%. For the same compound, the LC50 in the data set with Artemia was determined as 4.05 ppm. Also, the EC50 in the data set with MCF7 was 0.115 mg/L (≈ 0.212 µM); with HT-29, 0.0344 mg/L (≈ 0.0633 µM); in the data set on A549, 0.0292 mg/L (≈ 0.0537 µM).
In the same order, the values of `C=CC[C@@]12C[C@@H](OC)C(=O)C=C1O[C@@H](c1cc(OC)c3c(c1)OCO3)[C@H]2C` [DYSODANTHIN A] are 32.2%, 47.53 ppm, 5.51 mg/L (≈ 14.8 µM), 2.39 mg/L (≈ 6.42 µM) and 4.23 mg/L (≈ 11.4 µM).
The matching figures for `C=CC[C@@]12C[C@@H](OC)C(=O)C=C1O[C@@H](c1cc(OC)c(OC)c(OC)c1)[C@H]2C` [DYSODANTHIN B]: 52%, 334.2 ppm, 4.09 mg/L (≈ 10.5 µM), 2.76 mg/L (≈ 7.1 µM) and 3.68 mg/L (≈ 9.47 µM).
For `C=CC[C@]1([C@H](C)[C@@H](OC(C)=O)c2cc(OC)c(OC)c(OC)c2)C[C@@H](OC)C=CC1=O` [MEGAPHONE ACETATE], the “inhibition (INH)” value in data set [1] is reported as 48.3%. Besides, the LC50 in the data set with Artemia was 253.6 ppm. Moreover, the EC50 amounted to 3.66 mg/L in the data set on MCF7, 0.552 mg/L in the data set with HT-29 and 2.59 mg/L with A549.
